# Key:
# HD model strain mice = test: Morris water maze assay in HD model strain mice; format: in vivo, mouse; conditions: treated from 4 weeks, tested at 8 weeks of age, vs untreated HD mice
# From the text: Mouse strains: Mouse strain names provided herein adhere to the Guidelines for Nomenclature of Mouse and Rat Strains, Revised October 2011, International Committee on Standardized Genetic Nomenclature for Mice, accessible at www.informatics.jax.org/mgihome/nomen/strains.shtml. Official gene symbols, or, where appropriate, official mouse strain names of the Jackson Laboratory (www.jax.org, e.g., the Jackson Laboratory Mice Database at jaxmice.jax.org) are used. There are numerous HD mouse strains suitable for candidate compound or nucleic acid construct screening, and for pre-clinical evaluations of candidates for the treatment of HD such as the HD model strains R6/2, R6/1, N171-82Q, CAG140, HdhQ111, BACHD, and CAG150 (Crook Z R, Housman D (2011) Huntington's disease: can mice lead the way to treatment? Neuron. 69:423-35; the entire contents of which are incorporated herein by reference). The HD model strains differ in their manifestations and time line of HD-like symptoms, e.g., motor and cognitive dysfunctions. […]
# Morris water maze assay: The water maze assay measures spatial learning in mice. […] The sixth day has a single-trial probe test without the platform, and the time spent in each quadrant is recorded. […] The navigation of the mice is tracked by video camera, and the escape latency to the platform is recorded. […]
# [1] = system: subject having or suspected of having the polyQ tract expansion disease HD; test: Oral carbenoxolone in subjects having or suspected of having HD; format: in vivo, human; conditions: about 100-700 mg/day
# Procedure: The carbenoxolone is administered orally in tablet form, for example, as carbenoxolone disodium salt. The dosage is within the range of about 100-700 mg/day, for example at about 150 mg/day, about 300 mg/day, or about 600 mg/day. […] Such monitoring includes measuring cognitive and motor function in the subject, and/or determining whether a slowing or reversal of a personality change commonly associated with HD is observable. In some instances, the monitoring includes measuring the aggregation of Htt protein, the number or size of inclusion bodies, and/or brain tissue homeostasis (e.g. detection of improved survival of neuronal cells and/or reduction in astrocytes). […] After a period of time sufficient for a desired change, e.g. an amelioration in an HD symptom, to manifest, the subject is then monitored for such a change. For example, the subject, in some embodiments, is monitored for cognitive function, for example, within a time frame of about a week to about 6 months (e.g., about one month or about two months) after administration is commenced. […] For example, in some embodiments, the dose may be increased from about 150 mg/day to about 300 mg/day. In some embodiments, the subject is monitored again for symptoms after dose adjustment and, if the symptoms persist at the same severity level, the dose is increased further. […]
smiles,measurement,setting,value
CC1(C)[C@@H](OC(=O)CCC(=O)O)CC[C@]2(C)[C@H]3C(=O)C=C4[C@@H]5C[C@@](C)(C(=O)O)CC[C@]5(C)CC[C@@]4(C)[C@]3(C)CC[C@@H]12 [Carbenoxolone],"Impairment of cognitive capabilities (latency to escape, water maze)",HD model strain mice,lesser degree of impairment
same,"HD symptoms (cognition, motor function, personality change)",[1],improvement of at least some HD symptoms
